# Experimental data taken from patent US7714017B2, “Carboxylic acid peri-substituted bicyclics for occlusive artery disease” (Decode Genetics, EHF, priority 2004, dated 2010).
# Biological target: T1, prostanoid EP3 receptors (Homo sapiens, UniProt P43115)
# T1 sequence (P43115 1-390): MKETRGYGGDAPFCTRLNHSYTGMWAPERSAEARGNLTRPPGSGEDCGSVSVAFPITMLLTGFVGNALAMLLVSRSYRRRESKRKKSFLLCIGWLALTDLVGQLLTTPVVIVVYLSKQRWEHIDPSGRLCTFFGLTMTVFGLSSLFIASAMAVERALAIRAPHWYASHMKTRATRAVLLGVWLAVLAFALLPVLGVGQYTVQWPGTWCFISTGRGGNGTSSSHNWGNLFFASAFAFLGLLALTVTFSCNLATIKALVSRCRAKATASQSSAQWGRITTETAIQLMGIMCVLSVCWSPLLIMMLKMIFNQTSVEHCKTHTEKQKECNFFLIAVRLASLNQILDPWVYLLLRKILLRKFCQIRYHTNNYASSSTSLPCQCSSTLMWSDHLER
# Test: binding on prostanoid EP3 receptors (method of Abramovitz et al.)
# Conditions: Chart 1, read-out: Activity (EP3 receptor binding IC50 class)
# Procedure: (§1) The compounds of the invention were assayed for their binding on prostanoid EP3 receptors according to the method of Abramovitz et al. [Bioch. Biophys. Acta, 1473, 285-293 (2000)]. […] Compounds with IC50<1 μM are shown as +++; compounds with IC50 1-10 μM are shown as ++; and compounds with IC50>10 μM are shown as +.
# as §1, with “Acta.” for “Acta,”
row,SMILES,IC50 [µM]
1,"CC12CCCC(/C=C/C(=O)O)=C1N(Cc1ccc(Cl)c(Cl)c1)C(=O)C2 (stereo not drawn) [Compound A34, (E)-3-[1-(3,4-Dichloro-benzyl)-3a-methyl-2-oxo-2,3,3a,4,5,6-hexahydro-1H-indol-7-yl]-acrylic acid]",< 1
2,"CC12CCCC(/C=C/C(=O)O)=C1N(Cc1cccc(F)c1)C(=O)C2 (stereo not drawn) [Compound A27, (E)-3-[1-(3-Fluoro-benzyl)-3a-methyl-2-oxo-2,3,3a,4,5,6-hexahydro-1H-indol-7-yl]-acrylic acid]",< 1
3,"O=C(O)COc1cccc2oc(=O)n(Cc3ccc4c(c3)OCO4)c12 [Compound A05, (3-Benzo[1,3]dioxol-5-ylmethyl-2-oxo-2,3-dihydro-benzooxazol-4-yloxy)-acetic acid]",1 to 10
4,"O=C(O)/C=C/c1cccc2c1N(Cc1ccc3ccccc3c1)C(=O)C2=O [Compound A56, (E)-3-(1-Naphthalen-2-ylmethyl-2,3-dioxo-2,3-dihydro-1H-indol-7-yl)-acrylic acid]",< 1
5,"O=C(O)/C=C/c1cccc2c1N(Cc1ccc(Cl)cc1Cl)C(=O)C2(CO)CO [Compound A62, (E)-3-[1-(2,4-Dichloro-benzyl)-3,3-bis-hydroxymethyl-2-oxo-2,3-dihydro-1H-indol-7-yl]-acrylic acid]",< 1
6,O=C(O)COc1cccc2oc(=O)n(Cc3ccc(Cl)cc3Cl)c12 [Compound A07],1 to 10
7,"O=C(O)/C=C/c1cccc2c1N(Cc1ccc(Cl)cc1Cl)C(=O)C2=O [Compound A17, (E)-3-[1-(2,4-Dichloro-benzyl)-2,3-dioxo-2,3-dihydro-1H-indol-7-yl]-acrylic acid]",1 to 10
8,"CC12CCCC(/C=C/C(=O)O)=C1N(Cc1ccc(F)cc1)C(=O)C2 (stereo not drawn) [Compound A28, (E)-3-[1-(4-Fluoro-benzyl)-3a-methyl-2-oxo-2,3,3a,4,5,6-hexahydro-1H-indol-7-yl]-acrylic acid]",< 1
9,"Cc1cn(Cc2ccc(Cl)cc2Cl)c2c(/C=C/C(=O)O)cc(F)cc12 [Compound A31, (E)-3-[1-(2,4-dichloro-benzyl)-5-fluoro-3-methyl-1H-indol-7-yl]-acrylic acid]",< 1
10,"Cn1cc(/C=C/C(=O)O)c2c(Oc3ccc(F)c(Cl)c3)cccc21 [Compound A38, (E)-3-[4-(3-Chloro-4-fluoro-phenoxy)-1-methyl-1H-indol-3-yl]-acrylic acid]",1 to 10
11,"Cn1cc(/C=C/C(=O)O)c2c(Oc3ccc(F)cc3F)cccc21 [Compound A37, (E)-3-[4-(2,4-Difluoro-phenoxy)-1-methyl-1H-indol-3-yl]-acrylic acid]",< 1
12,"O=C(O)COc1cccc2oc(=O)n(Cc3ccc4ccccc4c3)c12 [Compound A04, (3-Naphthalen-2-ylmethyl-2-oxo-2,3-dihydro-benzooxazol-4-yloxy)-acetic acid]",1 to 10
13,"CC12CCCC(CCC(=O)O)=C1N(Cc1ccc(F)c(F)c1)C(=O)C2 (stereo not drawn) [Compound A50, 3-[1-(3,4-Difluoro-benzyl)-3a-methyl-2-oxo-2,3,3a,4,5,6-hexahydro-1H-indol-7-yl]-propionic acid]",1 to 10
14,"O=C(O)CCc1csc2ncc(C=Cc3ccc4ccccc4c3)n12 (mixture of isomers) [Compound A23, 3-[5-((E)-2-Naphthalen-2-yl-vinyl)-imidazo[2,1-b]thiazol-3-yl]-propionic acid]",1 to 10
15,"O=C(O)/C=C/c1cccc2c(CO)cn(Cc3ccc(Cl)cc3Cl)c12 [Compound A10, (E)-3-[1-(2,4-Dichloro-benzyl)-3-hydroxymethyl-1H-indol-7-yl]-acrylic acid]",1 to 10
16,"CC12CCCC(/C=C/C(=O)O)=C1N(Cc1ccc(Cl)cc1Cl)C(=O)C2 (stereo not drawn) [Compound A32, (E)-3-[1-(2,4-Dichloro-benzyl)-3a-methyl-2-oxo-2,3,3a,4,5,6-hexahydro-1H-indol-7-yl]-acrylic acid]",< 1
17,"O=C(O)C=Cc1cccc2c1N(Cc1ccc3ccccc3c1)C(=O)C2(O)C(F)(F)F (stereo not drawn) [Compound A15, 3-(3-Hydroxy-1-naphthalen-2-ylmethyl-2-oxo-3-trifluoromethyl-2,3-dihydro-1H-indol-7-yl)-acrylic acid]",1 to 10
18,"Cn1cc(/C=C/C(=O)O)c2c(Oc3ccc(F)cc3Cl)cccc21 [Compound A46, (E)-3-[4-(2-Chloro-4-fluoro-phenoxy)-1-methyl-1H-indol-3-yl]-acrylic acid]",1 to 10
19,"Cn1nc(NC(=O)c2ccc3ccccc3c2)c2c(/C=C/C(=O)O)cccc21 [Compound A26, (E)-3-{1-Methyl-3-[(naphthalene-2-carbonyl)-amino]-1H-indazol-4-yl}-acrylic acid]",1 to 10
20,"Cn1cc(/C=C/C(=O)O)c2c(Oc3ccc(Cl)cc3Cl)cccc21 [Compound A40, (E)-3-[4-(2,4-Dichloro-phenoxy)-1-methyl-1H-indol-3-yl]-acrylic acid]",< 1

row,SMILES,IC50 [µM]
1,"CC(=O)c1cn(Cc2ccc(Cl)cc2Cl)c2c(/C=C/C(=O)O)cccc12 [Compound A13, (E)-3-[3-Acetyl-1-(2,4-dichloro-benzyl)-1H-indol-7-yl]-acrylic acid]",1 to 10
2,"CC1(C)C(=O)N(Cc2ccc(Cl)cc2Cl)c2c(/C=C/C(=O)O)cccc21 [Compound A19, (E)-3-[1-(2,4-Dichloro-benzyl)-3,3-dimethyl-2-oxo-2,3-dihydro-1H-indol-7-yl]-acrylic acid]",1 to 10
3,"O=C(O)C(=O)Nc1cccc2c1N(Cc1ccc3ccccc3c1)C(=O)CO2 [Compound A51, N-(4-Naphthalen-2-ylmethyl-3-oxo-3,4-dihydro-2H-benzo[1,4]oxazin-5-yl)-oxalamic acid]",> 10
4,"Cn1cc(/C=C/C(=O)O)c2c(Oc3ccc(Cl)c(Cl)c3)cccc21 [Compound A39, (E)-3-[4-(3,4-Dichloro-phenoxy)-1-methyl-1H-indol-3-yl]-acrylic acid]",1 to 10
5,"Cc1cn(Cc2ccc(Cl)cc2Cl)c2c(/C=C/C(O)(C(F)(F)F)C(F)(F)F)cc(F)cc12 [Compound A64, (E)-4-[1-(2,4-Dichloro-benzyl)-5-fluoro-3-methyl-1H-indol-7-yl]-1,1,1-trifluoro-2-trifluoromethyl-but-3-en-2-ol]",1 to 10
6,"CC12CCCC(/C=C/C(=O)O)=C1N(Cc1cccc(Cl)c1Cl)C(=O)C2 (stereo not drawn) [Compound A36, (E)-3-[1-(2,3-Dichloro-benzyl)-3a-methyl-2-oxo-2,3,3a,4,5,6-hexahydro-1H-indol-7-yl]-acrylic acid]",1 to 10
7,"Cc1ccc(C)c(Cn2c(=O)oc3cccc(OCC(=O)O)c32)c1 [Compound A08, [3-(2,5-Dimethyl-benzyl)-2-oxo-2,3-dihydro-benzooxazol-4-yloxy]-acetic acid]",1 to 10
8,"O=Cc1cn(Cc2ccc(Cl)cc2Cl)c2c(/C=C/C(=O)O)cccc12 [Compound A11, (E)-3-[1-(2,4-Dichloro-benzyl)-3-formyl-1H-indol-7-yl]-acrylic acid]",< 1
9,"CN1C(=O)C(C(=O)Nc2ccc(Cl)cc2Cl)c2c(/C=C/C(=O)O)cccc21 (stereo not drawn) [Compound A33, (E)-3-[3-(2,4-Dichloro-phenylcarbamoyl)-1-methyl-2-oxo-2,3-dihydro-1H-indol-4-yl]-acrylic acid]",1 to 10
10,"O=C(O)/C=C/c1cccc2ccn(Cc3ccc4ccccc4c3)c12 [Compound A53, (E)-3-(1-Naphthalen-2-ylmethyl-1H-indol-7-yl)-acrylic acid]",< 1
11,"Cc1cn(Cc2cn3ccccc3n2)c2c(/C=C/C(=O)O)cc(F)cc12 [Compound A57, (E)-3-(5-Fluoro-1-imidazo[1,2-a]pyridin-2-ylmethyl-3-methyl-1H-indol-7-yl)-acrylic acid]",1 to 10
12,"Cn1cc(/C=C/C(=O)O)c2c(Oc3ccc(Cl)cc3F)cccc21 [Compound A45, (E)-3-[4-(4-Chloro-2-fluoro-phenoxy)-1-methyl-1H-indol-3-yl]-acrylic acid]",< 1
13,"O=C(O)COc1cccc2ncn(Cc3ccc(Cl)cc3Cl)c12 [Compound A21, [3-(2,4-Dichloro-benzyl)-3H-benzoimidazol-4-yloxy]-acetic acid]",< 1
14,"Cc1cn(Cc2ccc(Cl)cc2Cl)c2c(/C=C/C(=O)O)cccc12 [Compound A09, (E)-3-[1-(2,4-Dichloro-benzyl)-3-methyl-1H-indol-7-yl]-acrylic acid]",< 1
15,CN(C)Cc1cn(Cc2ccc3ccccc3c2)c2c(/C=C/C(=O)O)cccc12 [Compound A55],1 to 10
16,"COCc1cn(Cc2ccc(Cl)cc2Cl)c2c(/C=C/C(=O)O)cccc12 [Compound A12, (E)-3-[1-(2,4-Dichloro-benzyl)-3-methoxymethyl-1H-indol-7-yl]-acrylic acid]",< 1
17,"O=C(O)/C=C/c1cccc2c1N(Cc1ccc(Cl)cc1Cl)C(=O)C2(F)F [Compound A20, (E)-3-[1-(2,4-Dichloro-benzyl)-3,3-difluoro-2-oxo-2,3-dihydro-1H-indol-7-yl]-acrylic acid]",1 to 10
18,"O=C(O)/C=C/c1cccc2c1N(Cc1ccc(F)c(F)c1)C(=O)C2=O [Compound A60, (E)-3-[1-(3,4-Difluoro-benzyl)-2,3-dioxo-2,3-dihydro-1H-indol-7-yl]-acrylic acid]",1 to 10
19,"Cn1cc(/C=C/C(=O)O)c2c(Oc3ccc(Cl)cc3)cccc21 [Compound A41, (E)-3-[4-(4-Chloro-phenoxy)-1-methyl-1H-indol-3-yl]-acrylic acid]",1 to 10
